From publication PMC10819888, “Benzimidazole-Based Derivatives as Apoptotic Antiproliferative Agents: Design, Synthesis, Docking, and Mechanistic Studies” (Molecules, 2024)

Tests used:
Assay in all cases: NCI-60 one-dose assay
Assay type in all cases: cell-based
786-0 = conditions: Homo sapiens, 786-0 (Renal Cancer), read-out: Cell Inhibition Percent
Method: (§1) The final compounds were submitted to the National Cancer Institute, Bethesda, USA, for screening in vitro for anti-cancer. […] compounds, 4a–j, 5, and 6, were selected according to the Development Therapeutic Program (DTP) protocol. The selected compounds were evaluated for their in vitro cytotoxic activity against a panel of sixty cancer cell lines (NCI-60 cell line panel) derived from six cell lines panel of leukemia, nine cell lines of lung cancer, six cell lines of CNS cancer, seven cell lines of colon cancer, eight cell lines of melanoma, six cell lines of ovarian cancer, eight cell lines of renal cancer, two cell lines of prostate cancer, and eight cell lines of breast cancer, representing the full nine human systems as leukemia, melanoma, and cancers of the lung, colon, brain, breast, ovary, kidney, and prostate.
(§2) The selected compounds 4a–j, 5, and 6 were tested at a single concentration of 10 µM. The screening results for the selected compounds are illustrated in Table 1.
(§3) The NCI anti-cancer screening methodology has been described in detail elsewhere (http://www.dtp.nci.nih.gov, accessed on 20 February 2021). Following the Drug Evaluation Branch protocol, National Cancer Institute, Bethesda, USA, a primary anti-cancer assay was performed on approximately 60 human tumor cell line panels derived from nine neoplastic diseases.

A498 = conditions: Homo sapiens, A498 (Renal Cancer), read-out: Cell Inhibition Percent
Method: as §1, §2, §3

ACHN = conditions: Homo sapiens, ACHN (Renal Cancer), read-out: Cell Inhibition Percent
Method: as §1, §2, §3

EKVX = conditions: Homo sapiens, EKVX (Non-Small Cell Lung Cancer), read-out: Cell Inhibition Percent
Method: as §1, §2, §3

HCT-116 = conditions: Homo sapiens, HCT-116 (Colon Cancer), read-out: Cell Inhibition Percent
Method: as §1, §2, §3

HCT-15 = conditions: Homo sapiens, HCT-15 (Colon Cancer), read-out: Cell Inhibition Percent
Method: as §1, §2, §3

HL-60(TB) = conditions: Homo sapiens, HL-60(TB) (Leukemia), read-out: Cell Inhibition Percent
Method: as §1, §2, §3

HOP-62 = conditions: Homo sapiens, HOP-62 (Non-Small Cell Lung Cancer), read-out: Cell Inhibition Percent
Method: as §1, §2, §3

HOP-92 = conditions: Homo sapiens, HOP-92 (Non-Small Cell Lung Cancer), read-out: Cell Inhibition Percent
Method: as §1, §2, §3

IGROV1 = conditions: Homo sapiens, IGROV-1, IGROV1 (ovarian cancer), read-out: Cell Inhibition Percent
Method: as §1, §2, §3

KM12 = conditions: Homo sapiens, KM12 (Colon Cancer), read-out: Cell Inhibition Percent
Method: as §1, §2, §3

LOX IMVI = conditions: Homo sapiens, LOX IMVI (Melanoma), read-out: Cell Inhibition Percent
Method: as §1, §2, §3

MCF7 = conditions: Homo sapiens, MCF7 (Breast Cancer), read-out: Cell Inhibition Percent
Method: as §1, §2, §3

MDA-MB 231 = conditions: Homo sapiens, MDA-MB 231 (Breast Cancer), read-out: Cell Inhibition Percent
Method: as §1, §2, §3

MDA-MB-435 = conditions: Homo sapiens, MDA-MB-435 (Melanoma), read-out: Cell Inhibition Percent
Method: as §1, §2, §3

MDA-MB-468 = conditions: Homo sapiens, MDA-MB-468 (Breast Cancer), read-out: Cell Inhibition Percent
Method: as §1, §2, §3

MOLT-4 = conditions: Homo sapiens, MOLT-4 (Leukemia), read-out: Cell Inhibition Percent
Method: as §1, §2, §3

NCI-H226 = conditions: Homo sapiens, NCI-H226 (Non-Small Cell Lung Cancer), read-out: Cell Inhibition Percent
Method: as §1, §2, §3

NCI-H23 = conditions: Homo sapiens, NCI-H23 (Non-Small Cell Lung Cancer), read-out: Cell Inhibition Percent
Method: as §1, §2, §3

NCI-H322M = conditions: Homo sapiens, NCI-H322M (Non-Small Cell Lung Cancer), read-out: Cell Inhibition Percent
Method: as §1, §2, §3

OVCAR-5 = conditions: Homo sapiens, OVCAR-5 (ovarian cancer), read-out: Cell Inhibition Percent
Method: as §1, §2, §3

OVCAR-8 = conditions: Homo sapiens, OVCAR-8 (ovarian cancer), read-out: Cell Inhibition Percent
Method: as §1, §2, §3

PC-3 = conditions: Homo sapiens, PC-3 (Prostate Cancer), read-out: Cell Inhibition Percent
Method: as §1, §2, §3

SF-268 = conditions: Homo sapiens, SF-268 (CNS cancer), read-out: Cell Inhibition Percent
Method: as §1, §2, §3

SF-539 = conditions: Homo sapiens, SF-539 (CNS cancer), read-out: Cell Inhibition Percent
Method: as §1, §2, §3

SK-MEL-5 = conditions: Homo sapiens, SK-MEL-5 (Melanoma), read-out: Cell Inhibition Percent
Method: as §1, §2, §3

SNB-75 = conditions: Homo sapiens, SNB-75 (CNS cancer), read-out: Cell Inhibition Percent
Method: as §1, §2, §3

U251 = conditions: Homo sapiens, U-251, U251 (CNS cancer), read-out: Cell Inhibition Percent
Method: as §1, §2, §3

UACC-257 = conditions: Homo sapiens, UACC-257 (Melanoma), read-out: Cell Inhibition Percent
Method: as §1, §2, §3

UACC-62 = conditions: Homo sapiens, UACC-62 (Melanoma), read-out: Cell Inhibition Percent
Method: as §1, §2, §3

UO-31 = conditions: Homo sapiens, UO-31 (Renal Cancer), read-out: Cell Inhibition Percent
Method: as §1, §2, §3

Row | SMILES | inhibition at 10 µM (786-0) | inhibition at 10 µM (A498) | inhibition at 10 µM (ACHN) | inhibition at 10 µM (EKVX) | inhibition at 10 µM (HCT-116) | inhibition at 10 µM (HCT-15) | inhibition at 10 µM (HL-60(TB)) | inhibition at 10 µM (HOP-62) | inhibition at 10 µM (HOP-92) | inhibition at 10 µM (IGROV1) | inhibition at 10 µM (KM12) | inhibition at 10 µM (LOX IMVI) | inhibition at 10 µM (MCF7) | inhibition at 10 µM (MDA-MB 231) | inhibition at 10 µM (MDA-MB-435) | inhibition at 10 µM (MDA-MB-468) | inhibition at 10 µM (MOLT-4) | inhibition at 10 µM (NCI-H226) | inhibition at 10 µM (NCI-H23) | inhibition at 10 µM (NCI-H322M) | other results
1 | COc1cc(/C=N/NC(=O)c2ccc3[nH]c(-c4ccc(Cl)cc4)nc3c2)cc(OC)c1OC [Compound 4h, N′-(3,4,5-Trimethoxybenzylidene)-2-(4-chlorophenyl)-1H-benzimidazole-5 carbohydrazide] | 48.8% | 102% | 32.3% | 4.23% | 63.8% | 3.98% | 55.1% | 18.3% | 28.3% | 31.6% | 38.2% | 49.4% | 87.9% | 0% | 36% | 0% | 58.5% | 24% | 46.3% | 12.4% | inhibition at 10 µM (OVCAR-5): 0%; inhibition at 10 µM (OVCAR-8): 39.5%; inhibition at 10 µM (PC-3): 40.1%; inhibition at 10 µM (SF-268): 20.3%; inhibition at 10 µM (SF-539): 56.2%; inhibition at 10 µM (SK-MEL-5): 58.1%; inhibition at 10 µM (SNB-75): 13.4%; inhibition at 10 µM (U251): 46.8%; inhibition at 10 µM (UACC-257): 45.6%; inhibition at 10 µM (UACC-62): 71.3%; inhibition at 10 µM (UO-31): 11.7%
2 | O=C(N/N=C/c1ccc(O)cc1)c1ccc2[nH]c(-c3ccc(Cl)cc3)nc2c1 [Compound 4i, N′-(4-Hydroxybenzylidene)-2-(4-chlorophenyl)-1H-benzimidazole-5-carbohydrazide] | 0% | 5.34% | 4.33% | 0% | 0% | 0% | 0% | 0% | 0% | 17% | 2.85% | 11.9% | 25.1% | 2.75% | 0% | 0% | 15.6% | 20.6% | 4.44% | 0.47% | inhibition at 10 µM (OVCAR-5): 0%; inhibition at 10 µM (OVCAR-8): 0%; inhibition at 10 µM (PC-3): 0%; inhibition at 10 µM (SF-268): 13.7%; inhibition at 10 µM (SF-539): 1.95%; inhibition at 10 µM (SK-MEL-5): 4.32%; inhibition at 10 µM (SNB-75): 0%; inhibition at 10 µM (U251): 0%; inhibition at 10 µM (UACC-257): 0%; inhibition at 10 µM (UACC-62): 5.2%; inhibition at 10 µM (UO-31): 15.9%
3 | CCn1c(-c2ccc3[nH]c(-c4ccc(Cl)cc4)nc3c2)n[nH]c1=S [Compound 6, 4-ethyl-5-(2-(4-chlorophenyl)-1H-benzimidazol-5-yl)-2,4-dihydro-3H-1,2,4triazole-3-thione] | 0% | 56.9% | 0% | 0.44% | 0% | 1.62% | 0% | 1.71% | 0.32% | 0.16% | 0% | 0% | 14.6% | 2.36% | 0% | 0% | 2.85% | 1.97% | 4.53% | 0% | inhibition at 10 µM (OVCAR-5): 0%; inhibition at 10 µM (OVCAR-8): 0%; inhibition at 10 µM (PC-3): 7.76%; inhibition at 10 µM (SF-268): 1.04%; inhibition at 10 µM (SF-539): 3.69%; inhibition at 10 µM (SK-MEL-5): 2.04%; inhibition at 10 µM (SNB-75): 3.91%; inhibition at 10 µM (U251): 0%; inhibition at 10 µM (UACC-257): 0%; inhibition at 10 µM (UACC-62): 1.04%; inhibition at 10 µM (UO-31): 16.8%
4 | O=C(NN=Cc1ccc(F)cc1)c1ccc2[nH]c(-c3ccc(Cl)cc3)nc2c1 [Compound 4d, N′-(4-Fluorobenzylidene)-2-(4-chlorophenyl)-1H-benzimidazole-5-carbohydrazide] | 87.8% | 27.1% | 64.3% | 26.8% | 51.4% | 33.2% | 62.6% | 39.5% | 15.4% | 59.8% | 35.1% | 66% | 82.6% | 36.1% | 6.12% | 23.9% | 76.5% | 6.86% | 38.6% | 22.4% | inhibition at 10 µM (OVCAR-5): 10.8%; inhibition at 10 µM (OVCAR-8): 48.7%; inhibition at 10 µM (PC-3): 53.2%; inhibition at 10 µM (SF-268): 21.8%; inhibition at 10 µM (SF-539): 12%; inhibition at 10 µM (SK-MEL-5): 11%; inhibition at 10 µM (SNB-75): 2.77%; inhibition at 10 µM (U251): 98.4%; inhibition at 10 µM (UACC-257): 0%; inhibition at 10 µM (UACC-62): 11.8%; inhibition at 10 µM (UO-31): 24.6%
5 | CCNC(=S)NNC(=O)c1ccc2[nH]c(-c3ccc(Cl)cc3)nc2c1 [Compound 5] | 0% | 57.7% | 6.31% | 18.2% | 0% | 5.9% | 0% | 0.87% | 1.09% | 14.3% | 7.97% | 12.4% | 22.1% | 20.5% | 0.91% | 0% | 90% | 9.79% | 5.79% | 3.36% | inhibition at 10 µM (OVCAR-5): 3.26%; inhibition at 10 µM (OVCAR-8): 6.74%; inhibition at 10 µM (PC-3): 7.83%; inhibition at 10 µM (SF-268): 1.33%; inhibition at 10 µM (SF-539): 12.2%; inhibition at 10 µM (SK-MEL-5): 9.57%; inhibition at 10 µM (SNB-75): 7.77%; inhibition at 10 µM (U251): 2.36%; inhibition at 10 µM (UACC-257): 0%; inhibition at 10 µM (UACC-62): 1.88%; inhibition at 10 µM (UO-31): 6.39%
